“Also recorded” adds a separate entry of the source.

For data set [1], the system named is TPA induced mouse ear edema. In words: Acute TPA mouse ear inflammation assay, edema (ear weight). Type of data set: in vivo. From the text: The anti-inflammatory effect of selected compounds of this invention were compared to those of Triclosan™ and hydrocortisone in a modified […] (TPA) mouse ear inflammation assay. TPA was used as an inflammogen rather than croton oil because TPA gives a well characterized inflammatory response at very low concentrations. […] This model can therefore be used to study the pharmacokinetics, clinical efficacy and adverse side effects of anti-inflammatory agents. To quantitate inflammation, ear punches from treated animals were used to measure increased ear mass (edema) and myeloperoxidase (MPO) activity. For the inhibition studies, ear biopsies were weighed six hours after treatment with TPA and the simultaneous application of the compound of the present invention. All the compounds were diluted in acetone. Following this, the biopsies were frozen and subsequently used to measure inhibition of MPO activity, an estimate of polymorphonuclear (PMN) […] activity in the affected area. Percent inhibition of edema was calculated as [c-t]/c x 100, where c and t are increases in ear weight in control and treated mice, respectively.
Initially a dose-response curve for TPA-induced mouse ear edema was generated in order to determine the concentration of TPA to be employed in the inhibition studies. TPA produced a theoretical dose-response curve for edema with an ED50 of 80 ng/ear and an ED90 of 200 ng/ear in two separate experiments. ED50 is the dose at which 50% of the maximum effect was observed while ED90 is the dose at which 90% of the maximum effect was observed. […] The ED50 values for the compounds tested are as follows: […]

In data set [2] the test system is ear weight gain produced by multiple doses of TPA in mice. Briefly: Chronic (multiple dose) TPA mouse ear inflammation assay, ear weight gain. The class given is in vivo, mouse (female CD-1). The protocol:
The acute skin inflammation model described in Example 1, tests the ability of a compound to prevent inflammation and thus must be applied prophylactically. Most clinical situations, however, are present as chronic inflammatory conditions. […] The effects of the compounds of the present invention and Salifluor on chronically inflamed skin was measured in the mouse ear model that utilizes multiple TPA doses over a 10-day period to produce the inflammatory response.
The assay used female CD-1 mice (7-9 weeks of age). Following a 2-week quarantine, mice were randomly assigned to test groups (5 mice/groups). TPA (10 uL of 0.01 TPA in acetone) was administered to both the inner and outer surface of each ear (2μg/ear) on day 0,2,4,7, and 9 on protocol. On Day 7,8 and 9, two applications of test article were applied to each ear 2 and 4 hours after dosing with TPA. The test articles were administered in 10 uL aliquots to both the inner and outer surface of each ear (20 μl total/dose). […] Hydrocortisone-17-valerate (HCV, 20μg/ear) was employed as a positive control. Mice were sacrificed at Day 10 on protocol and uniform punch biopsies (approximately 8 mm dia.) were taken from each ear. While on protocol, dermal irritation was scored semiquantitatively at Day 1,3,5,8, and 10.
Inhibition of TPA stimulated increased ear weight was used as an initial measure of efficacy for all of the agents tested. One biopsy from each mouse was also quick frozen and stored at -70° C. for later assay of myleoperoxidase, an enzyme associated with infiltrating PMN, or other measure of efficacy. The remaining biopsy from each mouse treated with Trifluorosal or HCV was fixed in formalin and processed for histopathologic evaluation, including measurement of cellular infiltration (PMNs, endothelial cells, macrophages) and epidermal thickness at 20 random sites along the length of the specimen.
Initially, a dose-response curve for multiple doses of TPA to produce mouse ear weight gain was generated in order to determine the concentration of TPA to be employed in the inhibition studies. […] Another major difference between the multiple TPA dose (or chronic assay for inflammation) and the single TPA dose (or acute assay for inflammation) in the mouse ear is sensitivity to Non-steroidal antiinflammatory drugs (NSAIDs) and antihistamines.

A short description of data set [3]: Single dose oral tolerance in rats. Type of data set: in vivo, rat (male weaning Sprague-Dawley). Particulars: single dose 2.5 or 0.75 g/kg in 5% CMC, 7 days. The protocol:
To test for tolerance of the administered compounds, male weaning Sprague-Dawley rats were fed in a single dose of 2.5 or 0.75 g/kg of TMF-12, TMF-10, TMC-10 or TPC-10 in 5% carboxymethyl cellulose (CMC) or CMC alone. […] At completion of the 7 day observation period, necropsies were performed on all animals.

In data set [1] (acute assay), `CCCCCCCCCCCCS(=O)(=O)c1ccc(O)c(C(=O)Nc2cccc(C(F)(F)F)c2)c1` [TMF-12] registered an ID50 edema of 18 μg/ear. Further, the “Inhibition of TPA induced mouse ear edema (in words)” value in data set [1] (acute assay) was “inhibited TPA induced mouse ear edema in a dose-dependent fashion”. Further, the “Relative anti-inflammatory potency (in words)” value is “most potent of all; also recorded: more potent than AMCF3-8” in data set [1] (acute assay) and “the most potent 5-(n-alkylsulfonyl)salicylanilide in this assay” in data set [1] (acute assay, listed as Trifluorosal). Moreover, the “Potency relative to Salifluor” value in data set [1] (acute edema assay) is “ten”. Moreover, the “Inhibition of ear weight gain” value was 28% in data set [2] (500μg/ear, first experiment); 37.5% in data set [2] (1.25 mg/ear); 27.3% in data set [2] (2.5 mg/ear); 34.4% in data set [2] (5.0 mg/ear (printed 'mc/ear' for Trifluorosal)). Besides, the “Activity in chronic assay (in words)” value in data set [2] (1.25-5 mg/ear, remaining experiments) is “demonstrated consistent activity”. Moreover, in data set [2] (multiple doses of TPA), the “% Inhibition of Ear Weight Gain, Actual” value worked out at 37.3%. Also, in data set [2] (multiple doses of TPA, head prints 1.25 eg/ear), the “% Inhibition of Ear Weight Gain, Relative to Hydrocortisone (HCV) = 100%” value worked out at 61.8%. Further, the Illness or deaths entry in data set [3] is on record as “No illness or deaths occurred”.

These data come from patent publication US6117859A, “Method of relieving chronic inflammation by using 5-alkylsulfonylsalicylanilides” (The Research Foundation of State University of New York, priority 1999, dated 2000).
